Measurements reported in patent US6319952A, “Compositions and methods for reversibly increasing permeability of biomembranes” (D-Pharm Ltd., priority 1997, dated 2001).

Experiments:
membrane = details: Perlman and Goldstein; cited from earlier work
blood brain barrier [1] = details: cited from earlier work
[2] = system: blood-brain barrier (BBB); assay: Effect of branched chain fatty acids on BBB permeability by qualitative Evan's Blue (EB) evaluation in rats; assay type: in vivo, rat (male Sprague-Dawley); details: intracarotid infusion
Experimental: Evaluation of Effect of Branched Fatty Acids on Blood-brain Barrier Permeability
The experiments were carried out on male Sprague-Dawley rats weighing 250-320 gr. They were anesthetized with Rampun-Imalgen. The right common carotid artery was exposed.
The test compounds were dissolved in 0.1M phosphate buffered physiological saline (pH=7.4) at the following test concentrations: 1.6; 8; 20; 40; 200 and 1000 μg/ml.
The test compound was infused into the right common carotid artery at a rate of 6 ml/min. for 30 s. The control rats were infused with buffer. Evan's Blue (EB) solution at a concentration of […] (2 g Evan's Blue, 0.9 g NaCl in 100 ml water) was injected intravenously 50 minutes prior to the termination of the experiment.
In the case of 45 min experiment, five minutes prior to the infusion of the tested material, 4 ml/kg body wt dose of Evans Blue solution was injected intravenously.
At the end of the experimental time period the animals were perfused with 100 ml of saline solution through the heart and decapitated. The degree of BBB opening, in terms of extravasation of Evan's Blue albumin, was graded on the basis of visual assessment of the degree of staining of the brain ato the method of Rapoport et al. (Rapoport et al., 1980, Amer. J. Physiol. 258, 421-431), and the results are presented in Tables 1 and 2.
The results presented are qualitative with four degrees of Evan's Blue extravasation according to Rapoport et al. Minus signs represents no staining and three plus signs represent maximal staining.

mice = assay: Acute intravenous toxicity test in mice; assay type: in vivo; details: i.v.; for dose causing mortality: mice, three days
Experimental: An acute intravenous toxicity test was performed to study the toxicity of the branched fatty acids in mice. The study included mortality and behavioral observations during three days. The rate of mortality is represented in the Table 5. M 3/14 caused mortality at a dose of 175 mg/kg; M3/12 at a dose of 75 mg/kg and M 3/10 at a dose of 100 mg/kg. Death was observed ten minutes after i.v. injection. In sub-lethal doses no significant behavior changes were observed.

blood brain barrier [3] = details: Sztriha and Betz; cited from earlier work

Structure (SMILES): CCCC(CCC)C(=O)O [valproic acid]
- membrane disordering (membrane): membrane disordering potency

Structure (SMILES): OC[C@@H](O)[C@@H](O)[C@H](O)[C@H](O)CO [Mannitol]
- drug entry after barrier opening (blood brain barrier [1]; osmotic modification, chemotherapy after barrier opening): enhanced drug entry to both brain-tumor and brain
- complications of osmotic BBB modification (blood brain barrier [1]; osmotic modification): clinical manifestation of stroke, seizures, immunological reaction and ocular toxicity
- duration of BBB opening (blood brain barrier [1]; osmotic treatment, Greig): very short period

Structure (SMILES): CCCCCCCCCCC(CCC)C(=O)O (stereo not drawn) [M 3/10, 2-propyldodecanoic acid]
- Visual EB ([2]; 625 μM, 45 min): ++
- Mortality (mice; 50 mg/kg, 10 mg/ml): 0/3
- Mortality (mice; 100 mg/kg, 10 mg/ml): 3/3
- dose causing mortality (mice): 100 mg/kg

Structure (SMILES): CCCCCCCCCCCCC(CCC)C(=O)O (stereo not drawn) [M 3/12, 2-propyltetradecanoic acid]
- Visual EB ([2]; 125 μM, 180 min): ++
- Mortality (mice; 50 mg/kg, 2.5 mg/ml): 0/3
- Mortality (mice; 75 mg/kg, 2.5 mg/ml): 3/3
- dose causing mortality (mice): 75 mg/kg

Structure (SMILES): CCCCCCCC/C=C\CCCCCCCC(=O)O [oleic acid, reference compound]
- opening of the BBB (blood brain barrier [3]): reversibly open the BBB
- Visual EB ([2]; 125 μM, 180 min): -

Structure (SMILES): CCCCCCCCCCC(CCCCCCCCCC)C(=O)O [M 10/10, 2-decanyldodecanoic acid]
- Visual EB ([2]; 625 μM, 45 min): ++
